Experimental data from patent US20260157993A1, “USE OF 2-METHYLOXOLANE FOR FEEDING OVIPAROUS ANIMALS” (ECOXTRACT, priority 2022, published 2026).

What was measured:
[1] = system: domestic laying hens; assay: Egg production of domestic laying hens after oral administration in capsules; format: in vivo, chicken; details: for Number of eggs (average number of eggs per day laid by 4 chickens): oral capsules, control 3.5
Procedure: In this example, domestic laying hens have been divided into four groups: • the 4 chickens of the control group have not ingested 2-methyloxolane. • the 12 chickens of the N×1 group have ingested pure liquid 2-methyloxolane in capsules. The ingested dose of pure liquid 2-methyloxoane was 3.18 mg/kg of the chicken/day, i.e. 40 mg/kg in the daily ration, • the 12 chickens of the N×5 group have ingested pure liquid 2-methyloxolane in capsules. The ingested dose of pure liquid 2-methyloxoane was 15.88 mg/kg of the chicken/day, i.e. 200 mg/kg in the daily ration, and • the 12 chickens of the N×10 group have ingested pure liquid 2-methyloxolane in capsules. The ingested dose of pure liquid 2-methyloxoane was 31.77 mg/kg of the chicken/day, i.e. 400 mg/kg in the daily ration (the group N×10). The egg production of each group has been monitored in order to statistically validate the significance of the effect of an oral administration of 2-methyloxolane on egg production. The statistical processing is as follows: A one-factor analysis of variance (ANOVA) has been carried out using the XLSTAT 2020.2.1 software on MS EXCEL 16.0.15225. […] In case of a significant difference between the averages, a Student's t-test with a level of significance of 5% will be applied for the comparison in pairs using the same software. In total, 1,115 eggs have been counted throughout the observations. Table 1 hereinbelow presents the average of the number of eggs per day laid by 4 chickens as a function of their basking group.

[2] = system: rats; details: 3-month ingestion; cited from earlier work
[3] = system: human; details: EFSA Opinion of Mar. 15, 2022; cited from earlier work
[4] = system: average human of 50 kg; details: ICHQ3C R8, solvent to be limited; cited from earlier work

| SMILES | Effect of oral administration on number of laid eggs per chicken ([1]; 40 to 400 mg/kg in daily ration, no apparent dose effect, ANOVA and Student's t-test, 5% level) | Number of eggs (average number of eggs per day laid by 4 chickens) ([1]; N × 1 group: 3.18 mg/kg of the chicken/day, i.e. 40 mg/kg in the daily ration) | Number of eggs (average number of eggs per day laid by 4 chickens) ([1]; N × 5 group: 15.88 mg/kg of the chicken/day, i.e. 200 mg/kg in the daily ration) | Number of eggs (average number of eggs per day laid by 4 chickens) ([1]; N × 10 group: 31.77 mg/kg of the chicken/day, i.e. 400 mg/kg in the daily ration) | More eggs laid per week than animal whose feed is not supplemented ([1]; feed supplemented by the dietary supplement comprising 2-methyloxolane) | Dose with no undesirable effect observed [2] | Human exposure limit recommended by EFSA [3] | Acceptable Daily Dose [4] |
| --- | --- | --- | --- | --- | --- | --- | --- | --- |
| CC1CCCO1 (centres unmarked) [2-methyloxolane] | significantly increases | 3.9 | 3.9 | 3.9 | up to 14% | 250 mg/kg body weight per day | 1 mg/kg human body weight per day |  |
| CCCCCC [hexane] |  |  |  |  |  |  |  | 2.9 mg |
